Key:
LTK = system: LTK; set-up: method as in ChEMBL23 (accessed: 23/08/2018); conditions: average of reported values; ref ChEMBL23 (accessed: 23/08/2018); cited from earlier work
FYN = molecular target: T1, FYN (Homo sapiens, UniProt P06241); test: HotSpot in vitro kinase radiometric assay; format: biochemical
T1 construct: purchased Reaction Biology (HotSpot contract assay)

PIM1 = system: PIM1; set-up: method as in ChEMBL23 (accessed: 23/08/2018); conditions: average of reported values; ref ChEMBL23 (accessed: 23/08/2018); cited from earlier work
YES/YES1 = molecular target: T2, YES/YES1 (Homo sapiens, UniProt P07947); test: HotSpot in vitro kinase radiometric assay; format: biochemical
T2 construct: purchased Reaction Biology (HotSpot contract assay)

ABL1 = ABL1 (Homo sapiens, UniProt P00519); test: HotSpot in vitro kinase radiometric assay; format: biochemical; set-up: purchased Reaction Biology (HotSpot contract assay)
FGR = molecular target: T3, FGR (Homo sapiens, UniProt P09769); test: HotSpot in vitro kinase radiometric assay; format: biochemical
T3 construct: purchased Reaction Biology (HotSpot contract assay)

BLK = molecular target: T4, BLK (Homo sapiens, UniProt P51451); test: HotSpot in vitro kinase radiometric assay; format: biochemical
T4 construct: purchased Reaction Biology (HotSpot contract assay)
In short: (§1)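 Off-target screen in a radioisotope catalytic assay: test compounds incubated with each kinase, its substrate, cofactors and 33P- or 32P-labelled ɣ-ATP. Filters retaining labelled product gave the signal.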

PDK2/PDHK2 = molecular target: T5, PDK2/PDHK2 (Homo sapiens, UniProt Q15119); test: HotSpot in vitro kinase radiometric assay; format: biochemical
T5 construct: purchased Reaction Biology (HotSpot contract assay)
In short: as §1

LYN B = molecular target: T6, LYN B (Homo sapiens, UniProt P07948); test: HotSpot in vitro kinase radiometric assay; format: biochemical
T6 construct: purchased Reaction Biology (HotSpot contract assay)
In short: as §1

PDK4/PDKH4 = molecular target: T7, PDK4/PDKH4 (Homo sapiens, UniProt Q16654); test: HotSpot in vitro kinase radiometric assay; format: biochemical
T7 construct: purchased Reaction Biology (HotSpot contract assay)
In short: as §1

c-Src = molecular target: T8, c-Src (Homo sapiens, UniProt P12931); test: HotSpot in vitro kinase radiometric assay; format: biochemical
T8 construct: purchased Reaction Biology (HotSpot contract assay)
In short: as §1

ABL2/ARG = molecular target: T9, ABL2/ARG (Homo sapiens, UniProt P42684); test: HotSpot in vitro kinase radiometric assay; format: biochemical
T9 construct: purchased Reaction Biology (HotSpot contract assay)

TRKC = molecular target: T10, TRKC (Homo sapiens, UniProt Q16288); test: HotSpot in vitro kinase radiometric assay; format: biochemical
T10 construct: purchased Reaction Biology (HotSpot contract assay)

PEAK1 = molecular target: T11, PEAK1 (Homo sapiens, UniProt Q9H792); test: HotSpot in vitro kinase radiometric assay; format: biochemical
T11 construct: purchased Reaction Biology (HotSpot contract assay)

HSP90AB1 = system: HSP90AB1; set-up: method as in ChEMBL23 (accessed: 23/08/2018); conditions: average of reported values; ref ChEMBL23 (accessed: 23/08/2018); cited from earlier work
LCK = molecular target: T12, LCK (Homo sapiens, UniProt P06239); test: HotSpot in vitro kinase radiometric assay; format: biochemical
T12 construct: purchased Reaction Biology (HotSpot contract assay)

MET = system: MET; set-up: method as in ChEMBL23 (accessed: 23/08/2018); conditions: average of reported values; ref ChEMBL23 (accessed: 23/08/2018); cited from earlier work
DDR1 = DDR1 (Homo sapiens, UniProt Q08345); test: HotSpot in vitro kinase radiometric assay; format: biochemical; set-up: purchased Reaction Biology (HotSpot contract assay)
TRKA = molecular target: T13, TRKA (Homo sapiens, UniProt P04629); test: HotSpot in vitro kinase radiometric assay; format: biochemical
T13 construct: purchased Reaction Biology (HotSpot contract assay)
In short: as §1

PASK = molecular target: T14, PASK (Homo sapiens, UniProt Q96RG2); test: HotSpot in vitro kinase radiometric assay; format: biochemical
T14 construct: purchased Reaction Biology (HotSpot contract assay)
In short: as §1

T11 sequence (Q9H792 whole entry): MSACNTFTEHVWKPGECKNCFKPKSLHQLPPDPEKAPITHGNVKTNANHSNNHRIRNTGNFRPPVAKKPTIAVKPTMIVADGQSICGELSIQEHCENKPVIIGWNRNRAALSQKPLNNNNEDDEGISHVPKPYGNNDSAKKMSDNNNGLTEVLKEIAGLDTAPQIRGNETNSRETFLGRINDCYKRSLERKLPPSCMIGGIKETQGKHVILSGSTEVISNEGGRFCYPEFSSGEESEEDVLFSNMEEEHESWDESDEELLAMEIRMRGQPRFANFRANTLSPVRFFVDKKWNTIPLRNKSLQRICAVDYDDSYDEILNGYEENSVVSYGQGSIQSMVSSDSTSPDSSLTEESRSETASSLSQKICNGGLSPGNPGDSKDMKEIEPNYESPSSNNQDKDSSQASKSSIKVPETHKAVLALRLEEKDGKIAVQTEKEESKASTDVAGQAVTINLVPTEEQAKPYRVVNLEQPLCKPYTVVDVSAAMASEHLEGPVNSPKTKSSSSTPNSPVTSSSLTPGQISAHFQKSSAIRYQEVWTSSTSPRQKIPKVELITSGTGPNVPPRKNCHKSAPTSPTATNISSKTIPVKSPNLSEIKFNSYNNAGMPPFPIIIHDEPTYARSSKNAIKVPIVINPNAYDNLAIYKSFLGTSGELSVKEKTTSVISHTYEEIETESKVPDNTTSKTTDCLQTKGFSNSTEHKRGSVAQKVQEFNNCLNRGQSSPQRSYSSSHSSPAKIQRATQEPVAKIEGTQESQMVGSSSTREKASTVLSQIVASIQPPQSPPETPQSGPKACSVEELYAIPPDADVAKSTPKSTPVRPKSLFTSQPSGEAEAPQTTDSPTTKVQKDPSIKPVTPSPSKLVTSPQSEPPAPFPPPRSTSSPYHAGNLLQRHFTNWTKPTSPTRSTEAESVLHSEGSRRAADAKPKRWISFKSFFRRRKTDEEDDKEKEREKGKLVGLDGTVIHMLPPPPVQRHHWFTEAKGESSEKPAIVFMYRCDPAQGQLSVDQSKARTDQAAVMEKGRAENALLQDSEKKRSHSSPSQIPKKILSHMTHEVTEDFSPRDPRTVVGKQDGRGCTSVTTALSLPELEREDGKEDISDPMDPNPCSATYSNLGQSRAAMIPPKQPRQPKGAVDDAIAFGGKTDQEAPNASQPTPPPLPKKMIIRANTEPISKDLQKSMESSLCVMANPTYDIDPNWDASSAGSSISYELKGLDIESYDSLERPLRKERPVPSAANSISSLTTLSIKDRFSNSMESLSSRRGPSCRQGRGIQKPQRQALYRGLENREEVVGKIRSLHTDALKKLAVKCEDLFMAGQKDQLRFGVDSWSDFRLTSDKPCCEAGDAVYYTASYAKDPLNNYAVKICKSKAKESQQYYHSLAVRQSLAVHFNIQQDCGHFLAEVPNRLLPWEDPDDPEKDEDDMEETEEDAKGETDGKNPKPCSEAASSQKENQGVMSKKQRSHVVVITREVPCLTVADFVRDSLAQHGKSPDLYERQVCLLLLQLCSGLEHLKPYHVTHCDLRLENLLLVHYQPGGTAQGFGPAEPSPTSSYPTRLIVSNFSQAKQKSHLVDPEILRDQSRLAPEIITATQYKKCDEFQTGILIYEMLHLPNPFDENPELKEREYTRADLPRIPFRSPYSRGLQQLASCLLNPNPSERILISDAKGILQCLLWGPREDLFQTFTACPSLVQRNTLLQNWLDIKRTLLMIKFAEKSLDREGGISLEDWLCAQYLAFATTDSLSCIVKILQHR
T10 sequence (Q16288 32-839): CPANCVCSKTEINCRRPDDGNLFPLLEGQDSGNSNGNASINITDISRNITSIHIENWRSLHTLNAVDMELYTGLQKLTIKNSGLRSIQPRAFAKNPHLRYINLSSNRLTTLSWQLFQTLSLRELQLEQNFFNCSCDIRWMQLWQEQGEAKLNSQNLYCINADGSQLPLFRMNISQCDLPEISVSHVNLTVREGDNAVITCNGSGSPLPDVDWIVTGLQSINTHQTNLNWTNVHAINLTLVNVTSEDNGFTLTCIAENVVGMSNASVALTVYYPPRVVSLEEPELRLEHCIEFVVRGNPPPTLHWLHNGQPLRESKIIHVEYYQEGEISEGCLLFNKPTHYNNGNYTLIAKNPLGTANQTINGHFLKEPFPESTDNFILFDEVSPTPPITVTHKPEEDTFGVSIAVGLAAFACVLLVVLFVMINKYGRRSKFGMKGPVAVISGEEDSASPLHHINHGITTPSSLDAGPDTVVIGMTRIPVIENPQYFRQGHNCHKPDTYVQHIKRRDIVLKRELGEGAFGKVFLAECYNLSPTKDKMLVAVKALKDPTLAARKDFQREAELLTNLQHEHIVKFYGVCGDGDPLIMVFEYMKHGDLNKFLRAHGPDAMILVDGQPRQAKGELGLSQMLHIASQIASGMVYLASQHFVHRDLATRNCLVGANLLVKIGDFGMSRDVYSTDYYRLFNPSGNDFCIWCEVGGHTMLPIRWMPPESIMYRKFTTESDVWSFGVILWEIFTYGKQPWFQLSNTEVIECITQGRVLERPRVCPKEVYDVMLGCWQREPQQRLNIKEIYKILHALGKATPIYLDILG
T3 sequence (P09769 whole entry): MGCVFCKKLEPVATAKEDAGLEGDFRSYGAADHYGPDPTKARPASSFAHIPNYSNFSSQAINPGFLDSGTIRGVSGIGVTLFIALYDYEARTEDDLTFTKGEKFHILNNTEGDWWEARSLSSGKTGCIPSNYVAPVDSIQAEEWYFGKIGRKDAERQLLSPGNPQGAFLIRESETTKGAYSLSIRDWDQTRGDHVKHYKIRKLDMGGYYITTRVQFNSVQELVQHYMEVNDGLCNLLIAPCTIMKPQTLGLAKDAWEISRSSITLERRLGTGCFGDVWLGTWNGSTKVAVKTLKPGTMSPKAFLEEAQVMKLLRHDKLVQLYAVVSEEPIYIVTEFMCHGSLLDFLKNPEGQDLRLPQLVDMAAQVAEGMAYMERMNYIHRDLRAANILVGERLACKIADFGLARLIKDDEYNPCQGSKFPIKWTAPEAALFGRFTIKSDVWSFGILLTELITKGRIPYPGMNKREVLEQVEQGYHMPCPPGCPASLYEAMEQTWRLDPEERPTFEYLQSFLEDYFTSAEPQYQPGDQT
T13 sequence (P04629 33-796): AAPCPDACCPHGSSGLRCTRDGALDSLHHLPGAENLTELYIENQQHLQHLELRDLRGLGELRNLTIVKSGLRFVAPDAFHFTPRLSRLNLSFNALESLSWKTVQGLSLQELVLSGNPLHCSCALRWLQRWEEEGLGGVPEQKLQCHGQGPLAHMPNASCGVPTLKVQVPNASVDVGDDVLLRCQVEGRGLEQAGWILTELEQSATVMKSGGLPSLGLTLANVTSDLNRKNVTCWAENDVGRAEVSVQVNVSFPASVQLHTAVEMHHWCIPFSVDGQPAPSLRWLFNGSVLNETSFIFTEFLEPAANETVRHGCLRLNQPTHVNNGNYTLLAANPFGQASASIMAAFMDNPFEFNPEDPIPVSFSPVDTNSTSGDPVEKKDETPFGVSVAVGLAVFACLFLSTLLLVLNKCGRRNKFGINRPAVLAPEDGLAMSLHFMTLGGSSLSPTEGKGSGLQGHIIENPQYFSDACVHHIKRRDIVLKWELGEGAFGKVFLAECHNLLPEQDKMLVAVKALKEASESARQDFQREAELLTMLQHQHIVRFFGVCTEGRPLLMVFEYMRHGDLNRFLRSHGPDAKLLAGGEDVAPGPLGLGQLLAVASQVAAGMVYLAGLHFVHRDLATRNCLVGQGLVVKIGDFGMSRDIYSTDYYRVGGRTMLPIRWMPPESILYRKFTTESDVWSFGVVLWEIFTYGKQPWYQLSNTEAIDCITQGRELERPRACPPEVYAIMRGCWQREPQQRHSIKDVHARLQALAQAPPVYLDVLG
T7 sequence (Q16654 whole entry): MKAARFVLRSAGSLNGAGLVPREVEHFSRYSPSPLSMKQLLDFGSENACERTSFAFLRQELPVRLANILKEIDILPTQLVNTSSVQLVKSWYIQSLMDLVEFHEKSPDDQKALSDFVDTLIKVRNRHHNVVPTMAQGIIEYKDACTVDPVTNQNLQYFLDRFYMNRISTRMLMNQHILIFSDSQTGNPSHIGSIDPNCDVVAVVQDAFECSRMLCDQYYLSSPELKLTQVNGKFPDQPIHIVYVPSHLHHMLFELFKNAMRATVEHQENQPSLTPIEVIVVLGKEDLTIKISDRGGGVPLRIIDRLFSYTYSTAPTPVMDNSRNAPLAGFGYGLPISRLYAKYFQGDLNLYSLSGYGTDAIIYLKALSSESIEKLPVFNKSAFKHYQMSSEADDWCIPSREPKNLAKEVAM
T12 sequence (P06239 whole entry): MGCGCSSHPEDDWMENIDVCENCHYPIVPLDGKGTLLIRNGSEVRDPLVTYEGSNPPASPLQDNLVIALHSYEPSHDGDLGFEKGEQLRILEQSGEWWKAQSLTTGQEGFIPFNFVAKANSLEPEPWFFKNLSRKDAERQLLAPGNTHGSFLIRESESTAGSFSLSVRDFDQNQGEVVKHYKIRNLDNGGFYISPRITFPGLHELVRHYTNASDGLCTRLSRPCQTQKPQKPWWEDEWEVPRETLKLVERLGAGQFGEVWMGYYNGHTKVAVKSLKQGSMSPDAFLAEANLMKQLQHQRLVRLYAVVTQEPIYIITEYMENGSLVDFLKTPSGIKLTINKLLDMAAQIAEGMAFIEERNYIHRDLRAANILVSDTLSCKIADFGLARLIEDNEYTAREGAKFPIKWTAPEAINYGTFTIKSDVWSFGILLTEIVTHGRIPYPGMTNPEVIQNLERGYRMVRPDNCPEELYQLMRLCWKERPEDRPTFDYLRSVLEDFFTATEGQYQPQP

CCc1cc(-c2[nH]nc(C)c2-c2ccc3c(c2)OCCO3)c(O)cc1O [CCT018159]
pActivity, LTK (LTK): 5.6
remaining activity at 10 µM (FYN; FYN, 10uM, ATP 30 uM, Data 1, Data 2, read-out: % Enzyme Activity (relative to DMSO controls)): 31.4%
inhibition at 10 µM (FYN; read-out: % inhibition at 10 uM: FYN, 10 μM, Fig 6C median ± standard deviation (n = 2)): 69%
pActivity, PIM1 (PIM1): 5.8
remaining activity at 10 µM (YES/YES1; YES/YES1, 10uM, ATP 50 uM, Data 1, Data 2, read-out: % Enzyme Activity (relative to DMSO controls)): 92%
inhibition at 10 µM (YES/YES1; read-out: % inhibition at 10 uM: YES, 10 μM, Fig 6C median ± standard deviation (n = 2)): 9 ± 1%
remaining activity at 10 µM (ABL1; ABL1, 10uM, ATP 40 uM, Data 1, Data 2, read-out: % Enzyme Activity (relative to DMSO controls)): 80%
inhibition at 10 µM (ABL1; read-out: % inhibition at 10 uM: ABL1, 10 μM, Fig 6C median ± standard deviation (n = 2)): 19 ± 2%
remaining activity at 10 µM (FGR; FGR, 10uM, ATP 50 uM, Data 1, Data 2, read-out: % Enzyme Activity (relative to DMSO controls)): 26.1%
inhibition at 10 µM (FGR; read-out: % inhibition at 10 uM: FGR, 10 μM, Fig 6C median ± standard deviation (n = 2)): 71 ± 4%
remaining activity at 10 µM (BLK; BLK, 10uM, ATP 10 uM, Data 1, Data 2, read-out: % Enzyme Activity (relative to DMSO controls)): 15.3%
inhibition at 10 µM (BLK; read-out: % inhibition at 10 uM: BLK, 10 μM, Fig 6C median ± standard deviation (n = 2)): 85 ± 1%
remaining activity at 10 µM (PDK2/PDHK2; PDK2/PDHK2, 10uM, ATP 15 uM, Data 1, Data 2, read-out: % Enzyme Activity (relative to DMSO controls)): 42.8%
inhibition at 10 µM (PDK2/PDHK2; read-out: % inhibition at 10 uM: PDK2, 10 μM, Fig 6C median ± standard deviation (n = 2)): 50 ± 10%
remaining activity at 10 µM (LYN B; LYN B, 10uM, ATP 20 uM, Data 1, Data 2, read-out: % Enzyme Activity (relative to DMSO controls)): 100%
inhibition at 10 µM (LYN B; read-out: % inhibition at 10 uM: LYN B, 10 μM, Fig 6C median ± standard deviation (n = 2)): -1 ± 1%
remaining activity at 10 µM (PDK4/PDKH4; PDK4/PDKH4, 10uM, ATP 30 uM, Data 1, Data 2, read-out: % Enzyme Activity (relative to DMSO controls)): 66.3%
inhibition at 10 µM (PDK4/PDKH4; read-out: % inhibition at 10 uM: PDK4, 10 μM, Fig 6C median ± standard deviation (n = 2)): 33 ± 1%
remaining activity at 10 µM (c-Src; c-Src, 10uM, ATP 15 uM, Data 1, Data 2, read-out: % Enzyme Activity (relative to DMSO controls)): 86.2%
inhibition at 10 µM (c-Src; read-out: % inhibition at 10 uM: SRC, 10 μM, Fig 6C median ± standard deviation (n = 2)): 14 ± 1%
remaining activity at 10 µM (ABL2/ARG; ABL2/ARG, 10uM, ATP 30 uM, Data 1, Data 2, read-out: % Enzyme Activity (relative to DMSO controls)): 63.6%
inhibition at 10 µM (ABL2/ARG; read-out: % inhibition at 10 uM: ABL2, 10 μM, Fig 6C median ± standard deviation (n = 2)): 32 ± 7%
remaining activity at 10 µM (TRKC; TRKC, 10uM, ATP 100 uM, Data 1, Data 2, read-out: % Enzyme Activity (relative to DMSO controls)): 96.1%
inhibition at 10 µM (TRKC; read-out: % inhibition at 10 uM: TRKC, 10 μM, Fig 6C median ± standard deviation (n = 2)): 5 ± 1%
% inhibition at 10 uM: PEAK1 (PEAK1; 10 μM, Fig 6C median ± standard deviation (n = 2)): 83 ± 1%
remaining activity at 10 µM (PEAK1; PEAK1, 10uM, ATP 30 uM, Data 1, Data 2, read-out: % Enzyme Activity (relative to DMSO controls)): 16.4%
inhibition at 10 µM (PEAK1; read-out: % inhibition at 10 uM: PEAK1, 10 μM, Fig 6C median ± standard deviation (n = 2)): > 70%
pActivity, HSP90AB1 (HSP90AB1): 6.55
remaining activity at 10 µM (LCK; LCK, 10uM, ATP 15 uM, Data 1, Data 2, read-out: % Enzyme Activity (relative to DMSO controls)): 61.4%
inhibition at 10 µM (LCK; read-out: % inhibition at 10 uM: LCK, 10 μM, Fig 6C median ± standard deviation (n = 2)): 36 ± 4%
pActivity, MET (MET): 5.6
remaining activity at 10 µM (DDR1; DDR1, 10uM, ATP 100 uM, Data 1, Data 2, read-out: % Enzyme Activity (relative to DMSO controls)): 20.1%
inhibition at 10 µM (DDR1; read-out: % inhibition at 10 uM: DDR1, 10 μM, Fig 6C median ± standard deviation (n = 2)): 81%
remaining activity at 10 µM (TRKA; TRKA, 10uM, ATP 100 uM, Data 1, Data 2, read-out: % Enzyme Activity (relative to DMSO controls)): 34.6%
inhibition at 10 µM (TRKA; read-out: % inhibition at 10 uM: TRKA, 10 μM, Fig 6C median ± standard deviation (n = 2)): 66 ± 1%
remaining activity at 10 µM (PASK; PASK, 10uM, ATP 50 uM, Data 1, Data 2, read-out: % Enzyme Activity (relative to DMSO controls)): 101%
inhibition at 10 µM (PASK; read-out: % inhibition at 10 uM: PASK, 10 μM, Fig 6C median ± standard deviation (n = 2)): 0%

Reference: publication PMC8550792, “Evolution of kinase polypharmacology across HSP90 drug discovery” (Cell Chemical Biology, 2021)
